US20040186081A1, “Naaladase inhibitors for treating opioid tolerance” (Guilford Pharmaceuticals Inc., priority 2003, published 2004)
pIC50, pKi: −log10 of the molar value.

molecular target: NAALADase (Homo sapiens, UniProt Q04609); test: In vitro inhibition of NAALADase activity; format: biochemical; settings: not given
Sequence (Q04609 whole entry): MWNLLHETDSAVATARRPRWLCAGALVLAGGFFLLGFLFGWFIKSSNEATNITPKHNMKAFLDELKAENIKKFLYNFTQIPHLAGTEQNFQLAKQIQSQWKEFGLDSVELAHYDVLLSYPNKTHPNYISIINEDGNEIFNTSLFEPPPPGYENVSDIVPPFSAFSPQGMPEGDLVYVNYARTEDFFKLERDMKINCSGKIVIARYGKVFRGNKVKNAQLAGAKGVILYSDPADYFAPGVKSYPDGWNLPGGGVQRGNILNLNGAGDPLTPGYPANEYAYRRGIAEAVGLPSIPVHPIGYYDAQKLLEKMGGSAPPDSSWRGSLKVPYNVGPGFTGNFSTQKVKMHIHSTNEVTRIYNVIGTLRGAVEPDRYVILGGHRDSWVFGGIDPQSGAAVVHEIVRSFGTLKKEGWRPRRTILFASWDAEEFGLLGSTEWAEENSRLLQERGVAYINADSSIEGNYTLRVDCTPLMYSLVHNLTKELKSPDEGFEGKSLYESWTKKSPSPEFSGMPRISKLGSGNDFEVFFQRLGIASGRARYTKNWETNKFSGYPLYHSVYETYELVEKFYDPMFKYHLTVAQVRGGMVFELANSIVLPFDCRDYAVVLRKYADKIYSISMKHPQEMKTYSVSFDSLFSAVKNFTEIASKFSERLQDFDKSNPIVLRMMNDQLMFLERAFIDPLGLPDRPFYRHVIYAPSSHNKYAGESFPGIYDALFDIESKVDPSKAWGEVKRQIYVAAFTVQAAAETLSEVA

| pKi | Structure (SMILES) |
| --- | --- |
| 6.94 | O=C(O)c1ccc(CCS)c(C(=O)O)c1 [4-(2-mercaptoethyl)-1,3-benzenedicarboxylic acid] |
| 5.43 | O=C(O)c1ccc(OCCCSSCCCOc2ccc(C(=O)O)cc2C(=O)O)c(C(=O)O)c1 [4-[3-[[3-(2,4-dicarboxyphenoxy)-propyl]-dithio]propoxy]-1,3-benzenedicarboxylic acid] |
| 5.93 | O=C(O)c1ccc(C(=O)c2ccc(Oc3ccc(C(=O)O)c(C(=O)O)c3)cc2)c(C(=O)O)c1 [4-[4-(2,4-dicarboxybenzoyl)phenoxy]-1,2-benzenedicarboxylic acid] |
| 5.40 | O=C(O)c1ccc(Sc2ccccc2C(=O)O)c(C(=O)O)c1 [4-[(2-carboxyphenyl)thio]-1,3-benzenedicarboxylic acid] |
| 4.84 | O=C(O)c1cc(OCCS)cc(C(=O)O)c1 [5-(2-mercaptoethoxy)-1,3-benzenedicarboxylic acid] |
| 5.29 | O=C(O)c1cc(CCS)cc(C(=O)O)c1 [5-(2-mercaptoethyl)-1,3-benzenedicarboxylic acid] |
| 5.48 | O=C(O)c1cc(OCCCS)cc(C(=O)O)c1 [5-(3-mercaptopropoxy)-1,3-benzenedicarboxylic acid] |
| 4.92 | O=C(Cc1cc(C(=O)O)cc(C(=O)O)c1)NO [5-[2-(hydroxyamino)-2-oxoethyl]-1,3-benzenedicarboxylic acid] |
| 4.00 | O=C(O)CNc1cc(C(=O)O)cc(C(=O)O)c1 [5-[(carboxymethyl)amino]-1,3-benzenedicarboxylic acid] |
| 6.00 | O=C(O)c1cc(C(=O)O)cc(C(=O)NO)c1 [5-[(hydroxyamino)-carbonyl]-1,3-benzenedicarboxylic acid] |
| 4.30 | O=C(O)c1cc(CNCc2ccco2)cc(C(=O)O)c1 [5-[[(2-furanylmethyl)amino]methyl]-1,3-benzenedicarboxylic acid] |

same assay, conditions: read-out: IC50

| Structure (SMILES) | pIC50 |
| --- | --- |
| O=C(O)CNC(=O)c1cccc(CC(CCCS)C(=O)O)c1 (stereo not drawn) [3-[[(carboxymethyl)amino]carbonyl]-alpha-(3-mercaptopropyl)-benzenepropanoic acid] | 6.54 |
| O=C(O)c1cccc(CC(CCCS)C(=O)O)c1Cl (stereo not drawn) [3-carboxy-2-chloro-alpha-(3-mercaptopropyl)-benzenepropanoic acid] | 5.92 |
| COC(=O)c1cc(CC(C(=O)O)C(=O)NO)cc(C(C)(C)C)c1 (stereo not drawn) [3-tert-Butyl-5-(2-carboxy-2-hydroxycarbamoyl-ethyl)-benzoic acid methyl ester] | 4.41 |
| CC(C)(C)c1cc(CC(C(=O)O)C(=O)NO)cc(C(=O)O)c1 (stereo not drawn) [3-tert-Butyl-5-(2-carboxy-2-hydroxycarbamoyl-ethyl)-benzoic acid] | 4.92 |
| CC(C)(C)c1cc(CC(CC(=O)NO)C(=O)O)cc(C(=O)O)c1 (stereo not drawn) [3-tert-Butyl-5-(2-carboxy-3-hydroxycarbamoyl-propyl)-benzoic acid] | 6.53 |
| CC(C)(C)c1cc(CC(CCSCC(=O)NO)C(=O)O)cc(C(=O)O)c1 (stereo not drawn) [3-tert-Butyl-5-(2-carboxy-4-hydroxycarbamoylmethyl-sulfanylbutyl)-benzoic acid] | 5.97 |
| CCC(SCCC(Cc1cc(C(=O)O)cc(C(C)(C)C)c1)C(=O)O)C(=O)NO (stereo not drawn) [3-tert-Butyl-5-[2-carboxy-4-(1-hydroxycarbamoyl-propylsulfanyl)-butyl]-benzoic acid] | 4.80 |
| CN(O)C(=O)CSCCCC(Cc1cccc(C(=O)O)c1)C(=O)O (stereo not drawn) [3-{2-Carboxy-5-[(hydroxy-methyl-carbamoyl)-methylsulfanyl]-pentyl}-benzoic acid] | 4.83 |
| O=C(CSCCCC(Cc1cccc(-c2cccc(C(=O)O)c2)c1)C(=O)O)NO (stereo not drawn) [3′-(2-Carboxy-5-hydroxycarbamoylmethylsulfanyl-pentyl)-biphenyl-3-carboxylic acid] | 4.63 |
| O=C(O)Cc1ccc(OC(CCCS)C(=O)O)cc1 (stereo not drawn) [4-(1-carboxy-4-mercaptobutoxy)-benzeneacetic acid] | 7.09 |
| O=C(O)c1ccc(OC(CCCS)C(=O)O)cc1 (stereo not drawn) [4-(1-carboxy-4-mercaptobutoxy)-benzoic acid] | 6.72 |
| O=C(O)c1ccccc1Oc1ccc(CC(CCCS)C(=O)O)cc1 (stereo not drawn) [4-(2-carboxyphenoxy)-alpha-(3-mercaptopropyl)-benzenepropanoic acid] | 5.44 |
| N#Cc1ccccc1-c1ccc(CC(CCCS)C(=O)O)cc1 (stereo not drawn) [4-(2-cyanophenyl)-alpha-(3-mercaptopropyl)-benzenepropanoic acid] | 6.50 |
| O=C(CCCSCc1ccc(-c2cccc(C(=O)O)c2)c(C(=O)O)c1)NO [4-(3-Hydroxycarbamoyl-propylsulfanylmethyl)-biphenyl-2,3′-dicarboxylic acid] | 4.97 |
| N#Cc1ccc(COc2ccc(C(=O)NO)cc2)cc1 [4-(4-Cyano-benzyloxy)-N-hydroxy-benzamide] | 4.85 |
| O=C(NO)c1ccc(Oc2ccc(F)cc2)c([N+](=O)[O-])c1 [4-(4-Fluoro-phenoxy)-N-hydroxy-3-nitro-benzamide] | ≤ 4.00 |
| CC(=O)Nc1ccc(CC(CCCS)C(=O)O)cc1 (stereo not drawn) [4-(acetylamino)-alpha-(3-mercaptopropyl)-benzenepropanoic acid] | 5.66 |
| O=C(O)Cc1ccc(CC(CCCS)C(=O)O)cc1 (stereo not drawn) [4-(carboxymethyl)-alpha-(3-mercaptopropyl)-benzenepropanoic acid] | 6.09 |
| O=C(O)c1ccc(Br)c(CS)c1 [4-bromo-3-(mercaptomethyl)-benzoic acid] | 5.49 |
| O=C(O)c1c(F)c(F)c(CC(CCCS)C(=O)O)c(F)c1F (stereo not drawn) [4-carboxy-2,3,5,6-tetrafluoro-alpha-(3-mercaptopropyl)-benzenepropanoic acid] | 6.18 |
| O=C(O)c1ccc(CC(CCCS)C(=O)O)c2ccccc12 (stereo not drawn) [4-carboxy-alpha-(3-mercaptopropyl)-1-naphthalenepropanoic acid] | 6.50 |
| O=C(O)C(CCCS)Cc1ccc(O)cc1 (stereo not drawn) [4-hydroxy-alpha-(3-mercaptopropyl)-benzenepropanoic acid] | 5.67 |
| O=C(CSCCCC(Cc1cc(C(=O)O)cc(-c2ccccc2)c1)C(=O)O)NO (stereo not drawn) [5-(2-Carboxy-5-hydroxycarbamoylmethyl-sulfanylpentyl)-biphenyl-3-carboxylic acid] | 5.77 |
| CCOC(=O)c1cc(C(=O)O)cc(C(=O)NO)c1 [5-Hydroxycarbamoyl-isophthalic acid monoethyl ester] | 4.54 |
| O=C(COc1cc(C(=O)O)cc(C(=O)O)c1)NO [5-Hydroxycarbamoylmethoxy-isophthalic acid] | 4.83 |

Now from value to compound:

| pIC50 | Structure (SMILES) |
| --- | --- |
| 6.73 | O=C(O)c1cc(CS)ccc1OCCc1ccccc1 [5-(mercaptomethyl)-2-(2-phenylethoxy)-benzoic acid] |
| 6.74 | O=C(O)c1ccccc1-c1cccc(CC(CCCS)C(=O)O)c1 (stereo not drawn) [3′-(2-carboxy-5-mercaptopentyl)-[1,1′-biphenyl]-2-carboxylic acid] |
| 6.76 | O=C(O)c1cc(CC(CCCS)C(=O)O)ccc1Cl (stereo not drawn) [3-carboxy-4-chloro-alpha-(3-mercaptopropyl)-benzenepropanoic acid] |
| 6.84 | O=C(O)c1ccc(CC(CCCS)C(=O)O)cc1Br (stereo not drawn) [3-bromo-4-carboxy-alpha-(3-mercaptopropyl)-benzenepropanoic acid] |
| 7.07 | O=C(O)c1cccc(COc2ccc(CCS)c(C(=O)O)c2)c1 [5-[(3-carboxyphenyl)methoxy]-2-(2-mercaptoethyl)-benzoic acid] |
| 7.12 | O=C(O)c1cccc(-c2ccc(CS)cc2C(=O)O)c1 [4-(mercaptomethyl)-[1,1′-biphenyl]-2,3′-dicarboxylic acid] |
| 7.15 | O=C(O)c1ccc(COc2ccc(CCS)c(C(=O)O)c2)cc1 [5-[(4-carboxyphenyl)methoxy]-2-(2-mercaptoethyl)-benzoic acid] |
| 7.23 | O=C(O)c1ccc(CC(CCCS)C(=O)O)cc1 (stereo not drawn) [4-carboxy-alpha-(3-mercaptopropyl)-benzenepropanoic acid] |
| 7.52 | CC(S)CCC(Cc1cccc(C(=O)O)c1)C(=O)O (stereo not drawn) [3-carboxy-alpha-(3-mercaptobutyl)-benzenepropanoic acid] |
| 7.74 | O=C(O)c1cc(CC(CCCS)C(=O)O)ccc1-c1ccccc1 (stereo not drawn) [4-(2-carboxy-5-mercaptopentyl)-[1,1′-biphenyl]-2-carboxylic acid] |
| 7.77 | O=C(O)c1cccc(CC(CCCS)C(=O)O)c1 (stereo not drawn) [3-carboxy-alpha-(3-mercaptopropyl)-benzenepropanoic acid] |
| 7.89 | COc1cc(CC(CCCS)C(=O)O)cc(C(=O)O)c1 (stereo not drawn) [3-carboxy-alpha-(3-mercaptopropyl)-5-methoxy-benzenepropanoic acid] |
| 7.92 | O=C(O)c1cc(CC(CCCS)C(=O)O)ccc1F (stereo not drawn) [3-carboxy-4-fluoro-alpha-(3-mercaptopropyl)-benzenepropanoic acid] |
| 8.30 | O=C(O)c1cc(CC(CCCS)C(=O)O)cc(Oc2ccccc2)c1 (stereo not drawn) [3-carboxy-alpha-(3-mercaptopropyl)-5-phenoxy-benzenepropanoic acid] |
| 8.52 | O=C(O)c1cc(CC(CCCS)C(=O)O)cc([N+](=O)[O-])c1 (stereo not drawn) [3-carboxy-alpha-(3-mercaptopropyl)-5-nitro-benzenepropanoic acid] |
| 8.59 | O=C(O)c1cc(CC(CCCS)C(=O)O)cc(C(=O)O)c1 (stereo not drawn) [5-(2-carboxy-5-mercaptopentyl)-1,3-benzenedicarboxylic acid] |
| 8.60 | O=C(O)c1cc(Br)cc(CC(CCCS)C(=O)O)c1 (stereo not drawn) [3-bromo-5-carboxy-alpha-(3-mercaptopropyl)-benzenepropanoic acid] |
| 8.74 | O=C(O)c1cccc(-c2cccc(CC(CCCS)C(=O)O)c2)c1 (stereo not drawn) [3′-(2-carboxy-5-mercaptopentyl)-[1,1′-biphenyl]-3-carboxylic acid] |
| 9.00 | CC(S)CCC(Cc1cc(C(=O)O)cc(C(C)(C)C)c1)C(=O)O (stereo not drawn) [3-carboxy-5-(1,1-dimethylethyl)-alpha-(3-mercaptobutyl)-benzenepropanoic acid] |
| 9.70 | CC(C)(C)c1cc(CC(CCC(=O)NO)C(=O)O)cc(C(=O)O)c1 (stereo not drawn) [3-tert-Butyl-5-(2-carboxy-4-hydroxycarbamoyl-butyl)-benzoic acid] |
| 10.30 | CC(C)(C)c1cc(CC(CCCS)C(=O)O)cc(C(=O)O)c1 (stereo not drawn) [3-carboxy-5-(1,1-dimethylethyl)-alpha-(3-mercaptopropyl)-benzenepropanoic acid] |
